{"source": "the NIST ThermoML archive (doi:10.1016/j.fluid.2015.07.037)", "key": {"[1]": {"assay": "Molar enthalpy of transition or fusion", "details": "Crystal; DSC"}, "[2]": {"details": "Crystal; DTA"}}, "note": "± gives the expanded uncertainty stated by the source."}
{"molecule": "C[C@H](N)[C@H](O)c1cccc(O)c1.O=C(O)[C@H](O)[C@@H](O)C(=O)O", "values": [{"measurement": "Molar enthalpy of transition or fusion", "setting": "[1]", "result": "18.5 ± 0.382", "unit": "kcal/mol"}, {"measurement": "Normal melting temperature", "setting": "[2]", "result": "179.54 ± 0.41", "unit": "°C"}]}
{"molecule": "CC(C)NCC(O)c1ccc(O)c(O)c1.Cl", "note": "(stereo unspecified)", "values": [{"measurement": "Molar enthalpy of transition or fusion", "setting": "[1]", "result": "19.1 ± 0.382", "unit": "kcal/mol"}, {"measurement": "Normal melting temperature", "setting": "[2]", "result": "170.22 ± 0.41", "unit": "°C"}]}
{"molecule": "CNCC(O)c1ccc(O)cc1", "note": "(stereo unspecified) [synephrine]", "values": [{"measurement": "Molar enthalpy of transition or fusion", "setting": "[1]", "result": "23.8 ± 0.478", "unit": "kcal/mol"}, {"measurement": "Normal melting temperature", "setting": "[2]", "result": "190.38 ± 0.41", "unit": "°C"}]}
